In brackets after ≈: the same amount, converted by molar mass.
What was measured:
[1] = tested on: Staphylococcus aureus; experiment: Induction of cell permeability in methicillin-resistant Staphylococcus aureus M11 assessed as fold increase in fluorescence intensity at 32 times MIC by SYTOX Green dye based analysis relative to control; format: functional
[2] = Hemolytic activity against sheep erythrocytes; format: toxicity, cell-based, Ovis aries, Erythrocyte
[3] = tested on: Escherichia coli; experiment: Antibacterial activity against Escherichia coli ATCC 25922 incubated for 16 to 20 hrs by broth microdilution method; format: functional; details: time 16-20 hrs
[4] = tested on: Staphylococcus aureus; experiment: Antibacterial activity against methicillin-resistant Staphylococcus aureus M13 incubated for 16 to 20 hrs by broth microdilution method; format: functional; details: time 16-20 hrs
[5] = tested on: Staphylococcus aureus; experiment: Antibacterial activity against methicillin-resistant Staphylococcus aureus M14 incubated for 16 to 20 hrs by broth microdilution method; format: functional; details: time 16-20 hrs
[6] = tested on: Staphylococcus aureus; experiment: Antibacterial activity against methicillin-resistant Staphylococcus aureus M16 incubated for 16 to 20 hrs by broth microdilution method; format: functional; details: time 16-20 hrs
[7] = tested on: Staphylococcus aureus; experiment: Antibacterial activity against methicillin-resistant Staphylococcus aureus M20 incubated for 16 to 20 hrs by broth microdilution method; format: functional; details: time 16-20 hrs
[8] = tested on: Staphylococcus aureus; experiment: Antibacterial activity against methicillin-resistant Staphylococcus aureus M12 incubated for 16 to 20 hrs by broth microdilution method; format: functional; details: time 16-20 hrs
[9] = tested on: Staphylococcus aureus; experiment: Antibacterial activity against methicillin-resistant Staphylococcus aureus M21 incubated for 16 to 20 hrs by broth microdilution method; format: functional; details: time 16-20 hrs
[10] = tested on: Staphylococcus aureus; experiment: Antibacterial activity against methicillin-resistant Staphylococcus aureus M22 incubated for 16 to 20 hrs by broth microdilution method; format: functional; details: time 16-20 hrs
[11] = tested on: Staphylococcus aureus; experiment: Antibacterial activity against methicillin-resistant Staphylococcus aureus M17 incubated for 16 to 20 hrs by broth microdilution method; format: functional; details: time 16-20 hrs
[12] = tested on: Staphylococcus aureus; experiment: Antibacterial activity against Staphylococcus aureus ATCC 29213 incubated for 16 to 20 hrs by broth microdilution method; format: functional; details: time 16-20 hrs
[13] = tested on: Staphylococcus aureus; experiment: Antibacterial activity against methicillin-resistant Staphylococcus aureus M23 incubated for 16 to 20 hrs by broth microdilution method; format: functional; details: time 16-20 hrs
[14] = tested on: Staphylococcus aureus; experiment: Antibacterial activity against methicillin-resistant Staphylococcus aureus M11 incubated for 16 to 20 hrs by broth microdilution method; format: functional; details: time 16-20 hrs
[15] = tested on: Staphylococcus aureus; experiment: Induction of resistance development in Staphylococcus aureus ATCC 29213 assessed as fold change in MIC at 0.5 times MIC measured after 18 passages by broth microdilution method; format: functional

Structure (SMILES) | fold change (FC) [1] | HC50 [2] [µg/mL] | MIC [3] [µg/mL] | MIC [4] [µg/mL] | MIC [5] [µg/mL] | MIC [6] [µg/mL] | MIC [7] [µg/mL] | MIC [8] [µg/mL] | MIC [9] [µg/mL] | MIC [10] [µg/mL] | MIC [11] [µg/mL] | MIC [12] [µg/mL] | MIC [13] [µg/mL] | MIC [14] [µg/mL] | fold change (FC) [15]
CC[C@H](C)[C@H](NC(=O)CN)C(=O)NCC(=O)N[C@@H](C)C(=O)N[C@H](C(=O)N[C@@H](CC(C)C)C(=O)N[C@@H](CCCCN)C(=O)N[C@H](C(=O)N[C@@H](CC(C)C)C(=O)N[C@H](C(=O)N[C@H](C(=O)NCC(=O)N[C@@H](CC(C)C)C(=O)N1CCC[C@H]1C(=O)N[C@@H](C)C(=O)N[C@@H](CC(C)C)C(=O)N[C@H](C(=O)N[C@@H](CO)C(=O)N[C@@H](Cc1c[nH]c2ccccc12)C(=O)N[C@H](C(=O)N[C@@H](CCCCN)C(=O)N[C@@H](CCCNC(=N)N)C(=O)N[C@@H](CCCCN)C(=O)N[C@@H](CCCNC(=N)N)C(=O)N[C@@H](CCC(N)=O)C(=O)N[C@@H](CCC(N)=O)C(N)=O)[C@@H](C)CC)[C@@H](C)CC)[C@@H](C)O)[C@@H](C)O)C(C)C)C(C)C [MELITTIN] | ~8 |  |  |  |  |  |  |  |  |  |  |  |  |  | 
CCCNC(=O)C[n+]1ccc(SCCCCOc2ccc3ccc(=O)oc3c2CC=C(C)C)cc1.[Br-] |  | > 160 | > 128 | 16 | 8 | 8 | 8 | 16 | 2 | 2 | 8 | 16 | 8 | 4 | 
CCCCNC(=O)C[n+]1ccc(SCCCCCOc2ccc3ccc(=O)oc3c2CC=C(C)C)cc1.[Br-] |  | > 160 | > 128 | 2 | 1 | 2 | 1 | 2 | 1 | 1 | 2 | 2 | 2 | 1 | 
CCCCCCNC(=O)C[n+]1ccc(SCCCCCOc2ccc3ccc(=O)oc3c2CC=C(C)C)cc1.[Br-] |  | > 160 | > 128 | 2 | 2 | 2 | 4 | 2 | 2 | 2 | 2 | 64 | 2 | 2 | 
CCCN(CCC)C(=O)C[n+]1ccc(SCCCOc2ccc3ccc(=O)oc3c2CC=C(C)C)cc1.[Br-] |  | > 160 | 128 | 16 | 8 | 8 | 4 | 16 | 8 | 8 | 8 | 4 | 8 | 4 | 
CC(C)=CCc1c(OCCCSc2cc[n+](CC(=O)N(C(C)C)C(C)C)cc2)ccc2ccc(=O)oc12.[Br-] |  | > 160 | > 128 | 8 | 2 | 4 | 2 | 8 | 4 | 4 | 4 | 4 | 4 | 2 | 
CCCN(CCC)C(=O)C[n+]1ccc(SCCCCCOc2ccc3ccc(=O)oc3c2CC=C(C)C)cc1.[Br-] |  | > 160 | > 128 | 4 | 1 | 1 | 1 | 2 | 1 | 1 | 2 | 1 | 2 | 1 | 
CCCCNC(=O)C[n+]1ccc(SCCCOc2ccc3ccc(=O)oc3c2CC=C(C)C)cc1.[Br-] |  | > 160 | > 128 | 8 | 4 | 4 | 4 | 8 | 4 | 4 | 8 | 2 | 8 | 4 | 
CCn1cc(C(=O)O)c(=O)c2cc(F)c(N3CCNCC3)cc21 [NORFLOXACIN] |  |  |  |  |  |  |  |  |  |  |  |  |  |  | 128
CCCCN(CCCC)C(=O)C[n+]1ccc(SCCCOc2ccc3ccc(=O)oc3c2CC=C(C)C)cc1.[Br-] |  | > 160 | > 128 | 4 | 1 | 2 | 1 | 4 | 2 | 2 | 1 | 1 | 2 | 1 | 
COc1ccc2ccc(=O)oc2c1CC=C(C)C [OSTHOLE] |  | > 80 | > 64 | > 64 | 64 (≈ 262 µM) | 64 (≈ 262 µM) | 64 (≈ 262 µM) | 64 (≈ 262 µM) | > 64 | 64 (≈ 262 µM) | 64 (≈ 262 µM) | > 64 | > 64 | > 64 | 
CCCNC(=O)C[n+]1ccc(SCCCOc2ccc3ccc(=O)oc3c2CC=C(C)C)cc1.[Br-] |  | > 160 | > 128 | 32 | 8 | 8 | 8 | 16 | 8 | 8 | 16 | 8 | 8 | 8 | 
CCCCN(CCCC)C(=O)C[n+]1ccc(SCCCCOc2ccc3ccc(=O)oc3c2CC=C(C)C)cc1.[Br-] |  | > 160 | > 128 | 2 | 1 | 1 | 0.5 | 2 | 0.5 | 0.5 | 1 | 1 | 0.5 | 1 | 
CC(C)=CCc1c(OCCCCSc2cc[n+](CC(=O)N(C)c3ccccc3)cc2)ccc2ccc(=O)oc12.[Br-] |  | > 160 | > 128 | 8 | 4 | 4 | 2 | 8 | 8 | 8 | 16 | 4 | 16 | 2 | 
CC(C)=CCc1c(OCCCCCSc2cc[n+](CC(=O)N(CC(C)C)CC(C)C)cc2)ccc2ccc(=O)oc12.[Br-] |  | > 160 | > 128 | 8 | 8 | 16 | 8 | 8 | 2 | 2 | 2 | 1 | 8 | 8 | 
CC(C)=CCc1c(OCCCCCSc2cc[n+](CC(=O)N3CCOCC3)cc2)ccc2ccc(=O)oc12.[Br-] |  | > 160 | > 128 | 64 | 16 | 16 | 16 | 32 | 32 | 32 | 32 | 32 | 32 | 16 | 
